# Values of other authors, collected in US10196677B2, “Method for identification of sensitivity of a patient to telomerase inhibition therapy” (Geron Corporation, priority 2008, dated 2019).
# “Also recorded” adds a separate entry of the source. [NPS] = N3'→P5' thiophosphoramidate linkage
# How the values were obtained:
# [1] = test system: animal tumor models; details: animal tumor models / human cancer cells, local and systemic delivery
# [2] = test system: cancer cells; details: cell culture, various cancer cell types
substance,measurement,setting,value
"GRN163: oligonucleotide with sequence TAGGGTTAGACAA (SEQ ID NO:2) and N3′→P5′ thiophosphoramidate (NPS) linkages; hTR template inhibitor (all [NPS], sugars by position and methylation of C not given here)",Activity against tumors in vivo,[1],therapeutically effective
same,Inhibitory activity / growth inhibition of cancer cells in vitro,[2],has shown inhibitory activity in vitro in cell culture; also recorded: have shown inhibitory activity in vitro
